Results on 29 compounds are retold here after US20260125400A1, “TYK2 DEGRADERS AND USES THEREOF” (Kymera Therapeutics, Inc., priority 2023, published 2026).

The assay has as its target T1, TYK2 (Homo sapiens, UniProt P29597).
T1 construct: Degradation of TYK2 in cells was quantitatively measured using Meso Scale Discovery (MSD) technology; endogenous in cells; host or cells: OCI-LY10
The assay is described as follows: TYK2 MSD degradation in OCI-LY10 cells. The following applies: TYK2 degradation in OCI-LY10 cells, 4 to 24 hours incubation; for DC50: read-out: TYK2 MSD OCI-LY10 Rel-DC50. Format: cell-based. The method, then: Example 7. TYK2 MSD Degradation
Degradation of TYK2 in cells was quantitatively measured using Meso Scale Discovery (MSD) technology. OCI-LY10 cells were seeded in 96-well plates with a density of 0.4 million cells per well in 100 μl fresh media. Compounds were then added to the assay plates with a final top concentration of 1 to 10 μM in a 1:3 dilution series with total of 9 doses. The assay plates were then incubated for 4 to 24 hours at 37° C. under […]. The assay plates were then centrifuged for 5 minutes, and the cell pellets were treated with 100 μl/well RIPA lysis buffer (Boston Bioproducts, BP-115D) with protease and phosphatase inhibitors (Roche, 05892791001 and 04906837001). To prepare MSD assay plates (MSD, L15XA), the plates were coated with the capture antibody (Santa Cruz Biotechnology, SC-5271) in PBS, at 40 μl/well. The plates were then incubated overnight at 4° C., washed 3 times with 150 μl/well TBST buffer (Cell Signaling Technology, 9997S) and blocked with 150 μl/well blocking buffer (MSD, R93BA-4). Cell lysates were then added to MSD assay plates and the plates were incubated at room temperature for 1 hour. The plates were then washed 3 times with 150 μl/well TBST buffer and 25 μl/well primary detection antibody (Cell Signaling Technology, #9312). The assay plates were then incubated at room temperature for 1 hour, washed 3 times with 150 μl/well TBST buffer, and 25 μl/well secondary detection antibody, SULFO-TAG anti-rabbit antibody (MSD, R32AB-1) were added. The assay plates were then incubated at room temperature for 1 hour, washed 3 times with 150 μl/well TB ST buffer, and 150 μl/well MSD reading buffer (MSD, R92TC-2) were added. The plates were then analyzed by an MSD reader. The data was analyzed by GraphPad Prism and the dose dependent TYK2 degradation was fit using the four-parameter inhibitor vs. response nonlinear regression.
The letter codes for TYK2 DC50 include: A (<1 nM); B (i to <10 nM); C (10 to 100 nM); D (>100 nM); and E (not tested). The letter codes for TYK2 Dmax % include: A (>90%); B (90 to >75%); C (75 to 50%); D (<50%); and E (not tested).

T1 sequence (P29597 whole entry): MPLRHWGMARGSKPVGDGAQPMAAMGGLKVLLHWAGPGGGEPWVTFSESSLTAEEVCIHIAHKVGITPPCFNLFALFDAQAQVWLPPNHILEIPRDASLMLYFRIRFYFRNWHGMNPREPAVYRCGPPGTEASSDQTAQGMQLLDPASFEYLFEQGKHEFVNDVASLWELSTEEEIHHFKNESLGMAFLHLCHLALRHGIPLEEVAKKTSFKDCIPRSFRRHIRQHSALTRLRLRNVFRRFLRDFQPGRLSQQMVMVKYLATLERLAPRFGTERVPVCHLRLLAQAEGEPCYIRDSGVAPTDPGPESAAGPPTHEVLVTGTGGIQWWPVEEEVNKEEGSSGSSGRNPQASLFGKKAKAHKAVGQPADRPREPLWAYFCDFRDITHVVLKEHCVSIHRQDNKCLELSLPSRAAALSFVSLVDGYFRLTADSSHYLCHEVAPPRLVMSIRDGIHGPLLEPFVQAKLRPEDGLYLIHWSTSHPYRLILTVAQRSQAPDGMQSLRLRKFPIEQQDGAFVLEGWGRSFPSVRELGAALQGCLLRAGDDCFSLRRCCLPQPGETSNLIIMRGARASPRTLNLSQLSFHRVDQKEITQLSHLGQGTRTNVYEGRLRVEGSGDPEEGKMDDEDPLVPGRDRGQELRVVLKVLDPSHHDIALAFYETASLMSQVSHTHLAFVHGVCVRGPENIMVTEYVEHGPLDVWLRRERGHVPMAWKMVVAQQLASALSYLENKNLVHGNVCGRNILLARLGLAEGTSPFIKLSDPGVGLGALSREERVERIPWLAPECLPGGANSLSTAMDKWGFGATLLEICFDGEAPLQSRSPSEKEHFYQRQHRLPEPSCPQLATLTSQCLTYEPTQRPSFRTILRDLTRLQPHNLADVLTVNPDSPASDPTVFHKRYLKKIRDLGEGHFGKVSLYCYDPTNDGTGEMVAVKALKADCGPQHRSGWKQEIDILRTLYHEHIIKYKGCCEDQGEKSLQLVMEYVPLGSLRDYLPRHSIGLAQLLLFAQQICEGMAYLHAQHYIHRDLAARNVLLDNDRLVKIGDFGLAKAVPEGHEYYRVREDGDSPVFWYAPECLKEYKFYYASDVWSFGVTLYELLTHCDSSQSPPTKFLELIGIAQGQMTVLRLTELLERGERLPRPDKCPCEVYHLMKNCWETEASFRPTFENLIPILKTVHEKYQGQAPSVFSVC

Regarding `CCNC(=O)c1nnc(Nc2ccc(CN3CC4(CCN(c5cccc6c5n(C)c(=O)n6C5CCC(=O)NC5=O)CC4(F)F)C3)cn2)cc1Nc1cccc(F)c1OC` (stereo not shown) [I-92], the “TYK2 MSD OCI-LY10 Dmax %” value is on record as “C (C (75 to 50%))” and the DC50 was in the range of 10 to 100 nM.
On the same counts, the results for `CNc1cc(N2CCc3c(N4CCC5(CCN(C(=O)c6ccc(Cl)c(N7CCC(=O)NC7=O)c6)CC5)CC4)cccc32)nn2c(C(=O)N[C@@H]3C[C@@H]3F)cnc12` [I-93] are “D (D (<50%))” and under 10 nM.
The corresponding values for `CNc1cc(N2CCc3c(N4CCN(C5CCN(C(=O)c6ccc(Cl)c(N7CCC(=O)NC7=O)c6)CC5)CC4)cccc32)nn2c(C(=O)N[C@@H]3C[C@@H]3F)cnc12` [I-94] are “D (D (<50%))” and over 100 nM.
Take `CNc1cc(N2CCc3c(-c4ccc(CN5CCC6(CC5)CCN(Cc5ccc(Cl)c(N7CCC(=O)NC7=O)c5)CC6)cn4)cccc32)nn2c(C(=O)N[C@@H]3C[C@@H]3F)cnc12` [I-95]: the “TYK2 MSD OCI-LY10 Dmax %” value is given as “D (D (<50%))” and the DC50 is over 100 nM.
On the same counts, the results for `CNc1cc(N2CCc3c(-c4ccc(CN5CCC6(CCC(Oc7ccc(Cl)c(N8CCC(=O)NC8=O)c7)CC6)CC5)cn4)cccc32)nn2c(C(=O)N[C@@H]3C[C@@H]3F)cnc12` [I-96] are “D (D (<50%))” and under 10 nM.
On to `CNc1cc(-c2cccc(N3CCN(Cc4ccc5c(c4)n(C)c(=O)n5C4CCC(=O)NC4=O)CC3)n2)nn2c(C(=O)NC3CC3)cnc12` (stereo not shown) [I-198], for which the “TYK2 MSD OCI-LY10 Dmax %” value is recorded as “D (D (<50%))” and the DC50 is over 100 nM.
Turning to `CNc1cc(N2CCc3c(CN4CCC(N5CCC6(CCN(c7ccc8c(c7)n(C)c(=O)n8C7CCC(=O)NC7=O)CC6)CC5)C(F)(F)C4)cccc32)nn2c(C(=O)N[C@@H]3C[C@@H]3F)cnc12` (stereo partly shown) [I-237], the “TYK2 MSD OCI-LY10 Dmax %” value is recorded as “B (B (90 to >75%))” and the DC50 is under 1 nM.
The corresponding values for `CNc1cc(N2CCc3c(C#CCN4CC5(CCN(C(=O)c6ccc(Cl)c(N7CCC(=O)NC7=O)c6)CC5(F)F)C4)cccc32)nn2c(C(=O)N[C@@H]3C[C@@H]3F)cnc12` [I-241] are “C (C (75 to 50%))” and under 10 nM.
In the case of `CNc1cc(N2CCc3c(C#CCN4CCC5(CCN(C(=O)c6ccc(Cl)c(N7CCC(=O)NC7=O)c6)CC5)C(F)(F)C4)cccc32)nn2c(C(=O)N[C@@H]3C[C@@H]3F)cnc12` [I-242], the “TYK2 MSD OCI-LY10 Dmax %” value is given as “C (C (75 to 50%))” and the 50% degradation concentration (DC50) was under 10 nM.
On the same counts, the results for `CNc1cc(N2CCc3c(-c4ccc(CN5CCC(N6CCC(Oc7ccc(Cl)c(N8CCC(=O)NC8=O)c7)CC6)C(F)(F)C5)cn4)cccc32)nn2c(C(=O)N[C@@H]3C[C@@H]3F)cnc12` (stereo partly shown) [I-245] are “D (D (<50%))” and over 100 nM.
The corresponding values for `CNc1cc(N2CCc3c(-c4ccc(CN5CC6(CCN(C(=O)c7ccc(Cl)c(N8CCC(=O)NC8=O)c7)CC6)C5)nc4)cccc32)nn2c(C(=O)N[C@@H]3C[C@@H]3F)cnc12` [I-247] are “B (B (90 to >75%))” and under 10 nM.
The corresponding values for `CNc1cc(N2CCc3c(-c4cc(N5CCC6(CCN(C(=O)c7ccc(Cl)c(N8CCC(=O)NC8=O)c7)CC6)CC5)ccn4)cccc32)nn2c(C(=O)N[C@@H]3C[C@@H]3F)cnc12` [I-248] are “C (C (75 to 50%))” and under 10 nM.
`CNc1cc(N2CCc3c(-c4ccc(N5CCC6(CCN(C(=O)c7ccc(Cl)c(N8CCC(=O)NC8=O)c7)CC6)CC5)cn4)cccc32)nn2c(C(=O)N[C@@H]3C[C@@H]3F)cnc12` [I-249]: the “TYK2 MSD OCI-LY10 Dmax %” value was “D (D (<50%))” and the 50% degradation concentration (DC50) was over 100 nM.
The corresponding values for `CNc1cc(N2CCc3c(-c4ncc(CN5CC6(CCN(C(=O)c7ccc(Cl)c(N8CCC(=O)NC8=O)c7)CC6)C5)cn4)cccc32)nn2c(C(=O)N[C@@H]3C[C@@H]3F)cnc12` [I-250] are “B (B (90 to >75%))” and under 1 nM.
Consider `CNc1cc(N2CCc3c(-c4ccc(CN5CCC6(CCC(Nc7ccc(Cl)c(C8CCC(=O)NC8=O)c7)CC6)CC5)cn4)cccc32)nn2c(C(=O)N[C@@H]3C[C@@H]3F)cnc12` (stereo partly shown) [I-251], for which the “TYK2 MSD OCI-LY10 Dmax %” value is “C (C (75 to 50%))” and the DC50 was under 10 nM.
The corresponding values for `CNc1cc(N2CCc3c(-c4ccc(CC5CC6(CCN(C(c7ccc(Cl)c(N8CCC(=O)NC8=O)c7)C(F)(F)F)CC6)C5)cn4)cccc32)nn2c(C(=O)N[C@@H]3C[C@@H]3F)cnc12` (stereo partly shown) [I-272] are “D (D (<50%))” and over 100 nM.
The corresponding values for `CNc1cc(N2CCc3c(-c4ccc(CN5CCC(N6CC(N7CCN(c8cccc9c8n(C)c(=O)n9C8CCC(=O)NC8=O)CC7)C6)C(F)(F)C5)cn4)cccc32)nn2c(C(=O)N[C@@H]3C[C@@H]3F)cnc12` (stereo partly shown) [I-277] are “B (B (90 to >75%))” and under 1 nM.
On the same counts, the results for `CNc1cc(N2CCc3c(-c4ccc(CN5CCC(N6CC7(CCN(c8cccc9c8n(C)c(=O)n9C8CCC(=O)NC8=O)CC7)C6)C(F)(F)C5)cn4)cccc32)nn2c(C(=O)N[C@@H]3C[C@@H]3F)cnc12` (stereo partly shown) [I-279] are “B (B (90 to >75%))” and under 10 nM.
As for `CNc1cc(N2CCc3c(-c4ccc(CN5CCC(N6CCC7(CC6)CN(c6cccc8c6n(C)c(=O)n8C6CCC(=O)NC6=O)C7)C(F)(F)C5)cn4)cccc32)nn2c(C(=O)N[C@@H]3C[C@@H]3F)cnc12` (stereo partly shown) [I-280], the “TYK2 MSD OCI-LY10 Dmax %” value is “B (B (90 to >75%))” and the DC50 is under 10 nM.
Take `CNc1cc(N2CCc3c(-c4ccc(CN5CCC(N6CCC7(CCN(c8cccc9c8n(C)c(=O)n9C8CCC(=O)NC8=O)CC7)CC6)C(F)(F)C5)cn4)cccc32)nn2c(C(=O)N[C@@H]3C[C@@H]3F)cnc12` (stereo partly shown) [I-281]: the “TYK2 MSD OCI-LY10 Dmax %” value was “C (C (75 to 50%))” and the DC50 was under 10 nM.
The corresponding values for `CNc1cc(N2CCc3c(-c4ccc(CN5CCC(N6CC(N7CCN(c8ccc9c(c8)n(C)c(=O)n9C8CCC(=O)NC8=O)CC7)C6)C(F)(F)C5)cn4)cccc32)nn2c(C(=O)N[C@@H]3C[C@@H]3F)cnc12` (stereo partly shown) [I-282] are “B (B (90 to >75%))” and under 1 nM.
The corresponding values for `CNc1cc(N2CCc3c(N4CCN(C5CC6(CCN(C(=O)c7ccc(Cl)c(N8CCC(=O)NC8=O)c7)CC6)C5)CC4)cccc32)nn2c(C(=O)N[C@@H]3C[C@@H]3F)cnc12` [I-283] are “D (D (<50%))” and over 100 nM.
The corresponding values for `CNc1cc(N2CCc3c(N4CCN(C5CCC6(CC5)CCN(C(=O)c5ccc(Cl)c(N7CCC(=O)NC7=O)c5)CC6)CC4)cccc32)nn2c(C(=O)N[C@@H]3C[C@@H]3F)cnc12` [I-284] are “D (D (<50%))” and over 100 nM.
On to `CNc1cc(N2CCc3c(N4CCN(C5CCN(C6CCN(C(=O)c7ccc(Cl)c(N8CCC(=O)NC8=O)c7)CC6)CC5)CC4)cccc32)nn2c(C(=O)N[C@@H]3C[C@@H]3F)cnc12` [I-287], for which the “TYK2 MSD OCI-LY10 Dmax %” value was “D (D (<50%))” and the DC50 was over 100 nM.
The corresponding values for `CNc1cc(N2CCc3c(N4CCN(C5CN(C6CCN(C(=O)c7ccc(Cl)c(N8CCC(=O)NC8=O)c7)CC6)C5)CC4)cccc32)nn2c(C(=O)N[C@@H]3C[C@@H]3F)cnc12` [I-288] are “D (D (<50%))” and over 100 nM.
On the same counts, the results for `CNc1cc(N2CCc3c(-c4ccc(CN5CCC6(CCN(Cc7ccc(Cl)c(N8CCC(=O)NC8=O)c7)CC6)C(F)(F)C5)cn4)cccc32)nn2c(C(=O)N[C@@H]3C[C@@H]3F)cnc12` [I-289] are “D (D (<50%))” and over 100 nM.
The corresponding values for `CNc1cc(N2CCc3c(CN4CCC(N5CCC(Oc6ccc(Cl)c(N7CCC(=O)NC7=O)c6)CC5)C(F)(F)C4)cccc32)nn2c(C(=O)N[C@@H]3C[C@@H]3F)cnc12` (stereo partly shown) [I-291] are “D (D (<50%))” and over 100 nM.
In the case of `CNc1cc(N2CCc3c(-c4ccc(CN5CC6(C5)CN(C(=O)c5ccc(Cl)c(N7CCC(=O)NC7=O)c5)C6)cn4)cccc32)nn2c(C(=O)NC3CC3F)cnc12` (stereo not shown) [I-295], the “TYK2 MSD OCI-LY10 Dmax %” value is given as “D (D (<50%))” and the DC50 is under 10 nM.
The corresponding values for `CNc1cc(N2CCc3c(-c4ccc(CN5CC6(CCN(C(=O)c7ccc(Cl)c(N8CCC(=O)NC8=O)c7)C6)C5)cn4)cccc32)nn2c(C(=O)NC3CC3F)cnc12` (stereo not shown) [I-296] are “C (C (75 to 50%))” and under 1 nM.
